Our source for the agonistic activity values is patent publication US8299111B2, “Compounds which modulate the CB2 receptor” (Boehringer Ingelheim International GmbH, priority 2006, dated 2012).

The target in the experiment is T1, human CB2R (Homo sapiens, UniProt P34972).
T1 construct: host or cells: CHO cells
T1 sequence (P34972 whole entry): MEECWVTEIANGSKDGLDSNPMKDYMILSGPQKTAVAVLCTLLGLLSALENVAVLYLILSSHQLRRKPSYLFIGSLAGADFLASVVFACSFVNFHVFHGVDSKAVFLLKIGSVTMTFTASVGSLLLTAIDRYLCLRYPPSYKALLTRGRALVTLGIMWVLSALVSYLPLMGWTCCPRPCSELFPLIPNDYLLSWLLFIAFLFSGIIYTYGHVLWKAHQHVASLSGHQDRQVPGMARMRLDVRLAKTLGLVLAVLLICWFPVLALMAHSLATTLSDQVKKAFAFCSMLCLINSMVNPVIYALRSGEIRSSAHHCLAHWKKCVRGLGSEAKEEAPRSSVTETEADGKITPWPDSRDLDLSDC
The experiment in a line: CB2R mediated modulation of cAMP synthesis. The experiment is classed as cell-based. The following applies: found through the use of the above described assays (binding and cAMP); CHO cells expressing human CB2R, forskolin-stimulated cAMP. In outline: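 EC50 values reflect inhibition of cAMP made in response to 10 uM forskolin (with 1 mM IBMX, 0.25% BSA) over 30 min at 37 °C in human CB2R-expressing CHO cells. The window runs from forskolin alone to 1 uM CP55940; curves fitted with a four-parameter logistic model.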
With `CC(C)(C)c1cccc(NC(=O)C(C)(C)S(=O)(=O)c2ccc(Cl)cc2F)c1` [N-(3-tert-butylphenyl)-2-[(4-chloro-2-fluorophenyl)sulfonyl]-2-methylpropanamide], the agonistic activity result was “agonistic activity”.

Turning to `CC(C)(C)c1cccc(NC(=O)C(C)(C)S(=O)(=O)c2ccc(C(F)(F)F)nc2)c1` [N-(3-tert-butylphenyl)-2-methyl-2-{[6-(trifluoromethyl)pyridin-3-yl]sulfonyl}propanamide], the agonistic activity entry is reported as “agonistic activity”.

In the case of `COc1ccc(S(=O)(=O)C(C)(C)C(=O)Nc2nc(C3CCCCC3)cs2)cc1` [N-(4-cyclohexyl-1,3-thiazol-2-yl)-2-[(4-methoxyphenyl)sulfonyl]-2-methylpropanamide], the agonistic activity entry is reported as “agonistic activity”.

Regarding `CC(C)(C(=O)Nc1nc(C2CCCCC2)cs1)S(=O)(=O)c1ccc(S(C)(=O)=O)cc1` [N-(4-cyclohexyl-1,3-thiazol-2-yl)-2-methyl-2-{[4-(methylsulfonyl)phenyl]sulfonyl}propanamide], the agonistic activity result was “agonistic activity”.

For `CC(C)(C(=O)Nc1nc(C2CC2)cs1)S(=O)(=O)c1ccc(S(C)(=O)=O)cc1` [N-(4-cyclopropyl-1,3-thiazol-2-yl)-2-methyl-2-{[4-(methylsulfonyl)phenyl]sulfonyl}propanamide], the agonistic activity result is “agonistic activity”.

With `CCc1ccnc(NC(=O)C(C)(C)S(=O)(=O)c2ccc(S(C)(=O)=O)cc2)c1` [N-(4-ethylpyridin-2-yl)-2-methyl-2-{[4-(methylsulfonyl)phenyl]sulfonyl}propanamide], the agonistic activity entry is on record as “agonistic activity”.

Regarding `CCc1ccnc(NC(=O)C(C)(C)S(=O)(=O)c2ccc(C(F)(F)F)nc2)c1` [N-(4-ethylpyridin-2-yl)-2-methyl-2-{[6-(trifluoromethyl)pyridin-3-yl]sulfonyl}propanamide], the agonistic activity entry is given as “agonistic activity”.

As to `Cc1sc(NC(=O)C(C)(C)S(=O)(=O)c2ccc(Cl)cc2)nc1C(C)(C)C` [N-(4-tert-Butyl-5-methyl-thiazol-2-yl)-2-(4-chloro-benzenesulfonyl)-2-methyl-propionamide], the agonistic activity entry is “agonistic activity”.

`CC(C)(C)c1coc(NC(=O)C(C)(C)S(=O)(=O)c2ccc(Cl)cc2)n1` [N-(4-tert-Butyl-oxazol-2-yl)-2-(4-chloro-benzenesulfonyl)-2-methyl-propionamide]: the agonistic activity entry was “agonistic activity”.

As for `CC(C)(C)c1ccc(NC(=O)C(C)(C)S(=O)(=O)c2ccc(Cl)cc2)cc1` [N-(4-tert-Butyl-phenyl)-2-(4-chloro-benzenesulfonyl)-2-methyl-propionamide], the agonistic activity entry was “agonistic activity”.

In the case of `CC(C)(C)c1csc(NC(=O)C(C)(C)S(=O)(=O)c2ccc(Cl)cc2Cl)n1` [N-(4-tert-Butyl-thiazol-2-yl)-2-(2,4-dichloro-benzenesulfonyl)-2-methyl-propionamide], the agonistic activity result is on record as “agonistic activity”.

Turning to `CC(C)(C)c1csc(NC(=O)C(C)(C)S(=O)(=O)c2cc(F)ccc2F)n1` [N-(4-tert-Butyl-thiazol-2-yl)-2-(2,5-difluoro-benzenesulfonyl)-2-methyl-propionamide], the agonistic activity entry is on record as “agonistic activity”.

With `CC(C)(C)c1csc(NC(=O)C(C)(C)S(=O)(=O)c2ccc(Cl)c(Cl)c2)n1` [N-(4-tert-Butyl-thiazol-2-yl)-2-(3,4-dichloro-benzenesulfonyl)-2-methyl-propionamide], the agonistic activity entry was “agonistic activity”.

As for `CC(C)(C)c1csc(NC(=O)C(C)(C)S(=O)(=O)c2ccc(Cl)cc2F)n1` [N-(4-tert-Butyl-thiazol-2-yl)-2-(4-chloro-2-fluoro-benzenesulfonyl)-2-methyl-propionamide], the agonistic activity result was “agonistic activity”.

In the case of `CC(C)(C)c1csc(NC(=O)C(C)(C)S(=O)(=O)c2ccc(Cl)cc2)n1` [N-(4-tert-Butyl-thiazol-2-yl)-2-(4-chloro-benzenesulfonyl)-2-methyl-propionamide], the agonistic activity entry is recorded as “agonistic activity”.
